The values that follow come from patent US20200392161A1, “SHP2 PHOSPHATASE INHIBITORS AND METHODS OF USE THEREOF” (Relay Therapeutics, Inc., priority 2018, published 2020).

The target in the assay is T1, SHP2 (Homo sapiens, UniProt Q06124).
T1 sequence (Q06124 1-593): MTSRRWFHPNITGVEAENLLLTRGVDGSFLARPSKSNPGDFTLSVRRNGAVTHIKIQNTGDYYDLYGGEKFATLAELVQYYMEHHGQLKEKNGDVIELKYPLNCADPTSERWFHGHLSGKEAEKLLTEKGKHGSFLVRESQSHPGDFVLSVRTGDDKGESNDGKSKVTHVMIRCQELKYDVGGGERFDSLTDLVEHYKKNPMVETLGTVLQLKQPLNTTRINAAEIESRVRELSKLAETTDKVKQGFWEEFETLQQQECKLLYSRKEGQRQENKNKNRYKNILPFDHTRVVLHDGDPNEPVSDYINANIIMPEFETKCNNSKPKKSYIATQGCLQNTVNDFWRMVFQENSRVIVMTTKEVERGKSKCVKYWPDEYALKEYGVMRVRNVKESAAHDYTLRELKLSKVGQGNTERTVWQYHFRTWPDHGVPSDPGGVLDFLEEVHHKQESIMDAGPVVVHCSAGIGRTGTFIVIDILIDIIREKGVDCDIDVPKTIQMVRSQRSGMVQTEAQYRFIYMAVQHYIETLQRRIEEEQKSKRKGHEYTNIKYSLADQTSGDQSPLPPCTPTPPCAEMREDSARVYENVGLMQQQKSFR
Put plainly: SHP2 allosteric inhibition assay (DiFMUP prompt fluorescence). Format: biochemical. The conditions noted are these: 0.25 nM SHP2, 0.5 μM IRS1_pY1172(dPEG8)pY1222 peptide, DiFMUP 100 μM. The text has this:
SHP2 Allosteric Inhibition Assay.
SHP2 is allosterically activated through binding of bis-tyrosyl-phosphorylated peptides to its Src Homology 2 (SH2) domains. The latter activation step leads to the release of the auto-inhibitory interface of SHP2, which in turn renders the SHP2 protein tyrosine phosphatase (PTP) active and available for substrate recognition and reaction catalysis. The catalytic activity of SHP2 was monitored using the surrogate substrate DiFMUP in a prompt fluorescence assay format.
The inhibitor dose response curves were analyzed using normalized IC50 regression curve fitting with control based normalization.

Each structure is given as a SMILES string. Structures can show the parent of a compound that is named as a salt.

With `COc1ccc(-c2nc(CSc3nnc(NCC4CCCO4)s3)cs2)cc1OC` (stereo not drawn) [Compound C19], the IC50 (Table 3) lay in the range of 500 to 1000 µM.

Under “Table 3”, `COc1cc(-c2nc(CSc3nncn3C)cs2)ccc1O` [Compound C20] came in with a half-inhibitory concentration (IC50) of less than 500 µM.

Take `COc1cc(-c2nc(CN(C)c3ccc4c(c3)OCO4)cs2)ccc1O` [Compound C11]: the 50% inhibitory concentration (IC50) (Table 3) was less than 500 µM.

For the compound `C[C@@H]1OCC2(CCN(c3nc4[nH]nc(N5CCc6ncccc65)c4c(=O)n3C)CC2)[C@@H]1N` [Compound F11, 6-[(3S,4S)-4-amino-3-methyl-2-oxa-8-azaspiro[4.5]decan-8-yl]-5-methyl-3-{1H,2H,3H-pyrrolo[3,2-b]pyridin-1-yl}-1H,4H,5H-pyrazolo[3,4-d]pyrimidin-4-one formate], the concentration for half-maximal inhibition (IC50) (Table 6) is 1 to 20 µM.

As for `Cc1nc(N2CCC(C)(CN)C2)sc1-c1ccccc1Cl` (stereo not drawn) [Compound B4, ((1-(5-(2-chlorophenyl)-4-methylthiazol-2-yl)-3-methylpyrrolidin-3-yl)methanamine formate], the IC50 (Table 2) was more than 100 µM.

For `COCCn1cnnc1SCc1csc(-c2ccc(OC)c(OC)c2)n1` [Compound C15], where the note is “Table 3”, the concentration for half-maximal inhibition (IC50) was less than 500 µM.

For the compound `O=C(O)c1csc(-c2cccc3ccccc23)n1` [Compound C2], the IC50 (Table 3) is less than 500 µM.

In turn, `Cn1c(N2CCC(C)(CN)CC2)nc2[nH]nc(N3CCc4ccccc43)c2c1=O` [Compound F4, 6-(4-(aminomethyl)-4-methylpiperidin-1-yl)-3-(indolin-1-yl)-5-methyl-1H-pyrazolo[3,4-d]pyrimidin-4(5H)-one] displayed an IC50 (Table 6) of less than 1 µM.

On to `CCOc1ccc(-c2nc(CSc3nncs3)cs2)cc1OC` [Compound C23], for which the half-maximal inhibitory concentration (IC50) (Table 3) was more than 1000 µM.

Compound `COc1cc(-c2nc(CSc3nncs3)cs2)ccc1O` [Compound C4] yielded a 50% inhibitory concentration (IC50) (Table 3) of less than 500 µM.

For the setting “Table 3”, `Clc1ccc(-c2nc(CSc3nncs3)cs2)cc1` [Compound C27] showed an IC50 of more than 1000 µM.

With `CC1(N)CCN(C(=O)c2csc(-c3ccccc3Cl)n2)CC1` [Compound C1, (4-amino-4-methylpiperidin-1-yl)(2-(2-chlorophenyl)thiazol-4-yl)methanone formate], the concentration for half-maximal inhibition (IC50) (Table 3) is less than 500 µM.

`Cn1c(N2CCC(C)(CN)CC2)nc2[nH]nc(N3CCCc4ncccc43)c2c1=O` [Compound F1, 6-(4-(aminomethyl)-4-methylpiperidin-1-yl)-3-(3,4-dihydro-1,5-naphthyridin-1(2H)-yl)-5-methyl-1H-pyrazolo[3,4-d]pyrimidin-4(5H)-one, hydrochloride] displayed a half-maximal inhibitory concentration (IC50) (Table 6) of less than 1 µM.

The compound `Nc1c(-c2cccc(Cl)c2Cl)nc2sc(N3CCNCC3)nn12` [Compound A12, 6-(2,3-dichlorophenyl)-2-(piperazin-1-yl)imidazo[2,1-b][1,3,4]thiadiazol-5-amine] displayed a half-maximal inhibitory concentration (IC50) (Table 1) of more than 20 µM.

`Cn1c(N2CCC(C)(CN)CC2)nc2[nH]nc(Sc3cccc(Cl)c3Cl)c2c1=O` [Compound F7, 6-(4-(aminomethyl)-4-methylpiperidin-1-yl)-3-((2,3-dichlorophenyl)thio)-5-methyl-1H-pyrazolo[3,4-d]pyrimidin-4(5H)-one hydrochloride] had an IC50 (Table 6) of less than 1 µM.

For the setting “Table 1”, `CC1(N)CCN(c2nn3c(N)c(-c4cccc(Cl)c4Cl)nc3s2)CC1` [Compound A4, 2-(4-amino-4-methylpiperidin-1-yl)-6-(2,3-dichlorophenyl)imidazo[2,1-b][1,3,4]thiadiazol-5-amine formate] had an IC50 of more than 20 µM.

In turn, `CC1(CN)CCN(c2ncc(-c3ccccc3Cl)s2)C1` (stereo not drawn) [Compound B3, (1-(5-(2-chlorophenyl)thiazol-2-yl)-3-methylpyrrolidin-3-yl)methanamine formate] came in with a concentration for half-maximal inhibition (IC50) (Table 2) of more than 100 µM.

The compound `O=C(O)c1csc(-c2ccc(Cl)cc2Cl)n1` [Compound C5] showed a half-inhibitory concentration (IC50) (Table 3) of 500 to 1000 µM.

Regarding `COc1ccc(-c2nc(CSc3nnc(N(C(C)=O)C4CC4)s3)cs2)cc1OC` [Compound C38], for the setting “Table 3”, the concentration for half-maximal inhibition (IC50) is more than 1000 µM.

`COc1ccc(-c2nc(CSc3nncs3)cs2)cc1` [Compound C28] registered an IC50 (Table 3) of more than 1000 µM.

Where the note is “Table 3”, `COc1ccc(-c2nc(CSc3nncn3-c3ccccc3)cs2)cc1OC` [Compound C29] showed a half-maximal inhibitory concentration (IC50) of more than 1000 µM.

Turning to `Cn1cnnc1SCc1csc(-c2ccc3c(c2)OCO3)n1` [Compound C26], the concentration for half-maximal inhibition (IC50) (Table 3) was more than 1000 µM.

For the setting “Table 3”, `O=C(O)c1csc(-c2ncccc2Cl)n1` [Compound C43] yielded a half-inhibitory concentration (IC50) of more than 1000 µM.

With `c1coc(-c2nc(CSc3nncs3)cs2)c1` [Compound C8], the IC50 (Table 3) fell in the range of 500 to 1000 µM.

The compound `NCC1CCN(C(=O)c2csc(-c3ccccc3F)n2)C1` (stereo not drawn) [Compound C49] came in with an IC50 (Table 3) of more than 1000 µM.

`COc1ccccc1-c1nc(C(=O)N2CCCC(C(C)N)C2)cs1` (stereo not drawn) [Compound C46] displayed an IC50 (Table 3) of more than 1000 µM.

Where the note is “Table 3”, `COc1cccc(Nc2nnc(SCc3csc(-c4ccc(OC)c(OC)c4)n3)s2)c1` [Compound C39] gave an IC50 of more than 1000 µM.

Consider `CC1(N)CCN(c2cc(=O)n3c(-c4cccc(Cl)c4F)n[nH]c3n2)CC1` [Compound F3, 7-(4-amino-4-methylpiperidin-1-yl)-3-(3-chloro-2-fluorophenyl)-[1,2,4]triazolo[4,3-a]pyrimidin-5(1H)-one hydrochloride], for which, under “Table 6”, the concentration for half-maximal inhibition (IC50) is more than 20 µM.

The compound `COc1nc(N2CCC(C)(N)CC2)nc2[nH]nc(-c3cccc(Cl)c3Cl)c12` [Compound F9, 1-[3-(2,3-dichlorophenyl)-4-methoxy-1H-pyrazolo[3,4-d]pyrimidin-6-yl]-4-methyl-piperidin-4-amine] displayed a half-inhibitory concentration (IC50) (Table 6) of less than 1 µM.

Consider `COc1cc(-c2nc(CN(C)Cc3ccco3)cs2)ccc1O` [Compound C37], for which, where the note is “Table 3”, the IC50 is more than 1000 µM.

On to `c1ccc(-c2nc(CSc3nncs3)cs2)cc1` [Compound C40], for which the half-maximal inhibitory concentration (IC50) (Table 3) is more than 1000 µM.

In turn, `Cc1cc2occ(-c3ccccc3Cl)n2n1` [Compound E3, 3-(2-chlorophenyl)-6-methylpyrazolo[5,1-b]oxazole] returned an IC50 (Table 5) of more than 100 µM.

For the setting “Table 4”, `CC1(N)CCN(c2ncnc3c(-c4cccc(Cl)c4Cl)csc23)CC1` [Compound D1, 1-(7-(2,3-dichlorophenyl)thieno[3,2-d]pyrimidin-4-yl)-4-methylpiperidin-4-amine formate] yielded an IC50 of 1 to 10 µM.

In the case of `C=C(C)CSc1nnc(SCc2csc(-c3ccc(OC)c(OC)c3)n2)s1` [Compound C33], the 50% inhibitory concentration (IC50) (Table 3) is more than 1000 µM.

For the setting “Table 3”, `COc1cc(-c2nc(CSc3nnc(-c4ccc(C)cc4C)o3)cs2)ccc1O` [Compound C34] had an IC50 of more than 1000 µM.

Take `COc1ccc(-c2nc(CSc3nnnn3C3CC3)cs2)cc1OC` [Compound C25]: where the note is “Table 3”, the IC50 is more than 1000 µM.

`Cc1nc(-c2ccc(C(F)(F)F)cc2)sc1C(=O)N1CC[C@@H](N)C1` [Compound C44] yielded a concentration for half-maximal inhibition (IC50) (Table 3) of more than 1000 µM.

`Cc1c(-c2ccccc2Cl)nc2sc(N3CCC(C)(CN)CC3)nn12` [Compound A7, (1-(6-(2-chlorophenyl)-5-methylimidazo[2,1-b][1,3,4]thiadiazol-2-yl)-4-methylpiperidin-4-yl)methanamine formate] yielded an IC50 (Table 1) of less than 5 µM.

For the compound `COc1ccc(-c2nc(CSc3ncccn3)cs2)cc1OC` [Compound C7], the IC50 (Table 3) lay within 500 to 1000 µM.

For the compound `COc1ccc(-c2nc(CSc3nccn3C3CC3)cs2)cc1OC` [Compound C12], the IC50 (Table 3) is less than 500 µM.

As to `O=C(O)Cc1csc(-c2cccc(Cl)c2Cl)n1` [Compound C41], the IC50 (Table 3) was more than 1000 µM.

On to `CCOc1ccc(-c2nc(CSc3nnc(C)s3)cs2)cc1OC` [Compound C36], for which the concentration for half-maximal inhibition (IC50) (Table 3) was more than 1000 µM.

Compound `CC1(N)CCCN(c2nn3c(N)c(-c4cccc(Cl)c4Cl)nc3s2)C1` (stereo not drawn) [Compound A1, 2-(3-amino-3-methylpiperidin-1-yl)-6-(2,3-dichlorophenyl)imidazo[2,1-b][1,3,4]thiadiazol-5-amine formate] showed a half-maximal inhibitory concentration (IC50) (Table 1) of less than 5 µM.

`Nc1c(-c2cccc(Cl)c2Cl)nc2sc(N3C[C@@H]4[C@@H](N)[C@@H]4C3)nn12` [Compound A3] gave an IC50 (Table 1) of less than 5 µM.

As to `O=C(Nc1cc(C(F)(F)F)cc(C(F)(F)F)c1)c1csc(-c2cccc(Cl)c2Cl)n1` [Compound C3], the IC50 (Table 3) is 500 to 1000 µM.

`c1cc(-c2nc(CSc3nncs3)cs2)co1` [Compound C24] showed an IC50 (Table 3) of more than 1000 µM.

`COc1ccc(-c2nc(CSc3nnc(C4CC4)n3N)cs2)cc1OC` [Compound C10] returned an IC50 (Table 3) of 500 to 1000 µM.

`CC1(CN)CCN(c2nn3cc(C(=O)N4CCCc5ncccc54)nc3s2)C1` (stereo not drawn) [Compound A8, (2-(3-(aminomethyl)-3-methylpyrrolidin-1-yl)imidazo[2,1-b][1,3,4]thiadiazol-6-yl)(3,4-dihydro-1,5-naphthyridin-1(2H)-yl)methanone formate]: where the note is “Table 1”, the 50% inhibitory concentration (IC50) was more than 20 µM.
